From US20110015261A1, “USE OF A COMPOSITION COMPRISING AT LEAST ONE BETA-BLOCKER FOR THE TREATMENT OF SLEEP DISORDERS” (Zleepax Europe ApS, priority 2007, published 2011)
Where two headings read alike, the source gives them in different places.

What was measured:
[1] = test system: patients with hypertension; conditions: cited from earlier work; for effect on the quality of sleep: patients with hypertension (Stoschitzky 2006)
[2] = test system: nocturnal aMT6s secretion; conditions: healthy volunteers (Stoschitzky 2006); cited from earlier work
[3] = test system: non-hypertensive stressed individuals with transient insomnia; assay: Sleep quality in non-hypertensive stressed individuals with transient insomnia; format: in vivo, human; conditions: 1.25 mg 2 hours before bedtime; 6 individuals (5 males, 1 female)
Protocol: 6 non-hypertensive stressed individuals with transient insomnia (5 males and 1 female) were treated with 1.25 mg Hypoloc (Nebivolol) 2 hours before bedtime.

Compound | effect on the quality of sleep [1] | quality of sleep ([1]; patients with hypertension (Testa 1993)) | effects on the nocturnal aMT6s urinary secretion [2] | quality of sleep ([1]; patients with hypertension (Erdem 2007)) | sleep quality as reported by individuals [3]
CC(C)NCC(O)COc1ccc(COCCOC(C)C)cc1 (centres unmarked) [Bisoprolol] | no negative effect | – | – | – | –
C[C@H](CS)C(=O)N1CCC[C@H]1C(=O)O [Captopril] | – | improve the quality of sleep | – | – | –
COc1ccccc1OCCNCC(O)COc1cccc2[nH]c3ccccc3c12 (centres unmarked) [Carvedilol] | no negative effect | – | little if any effects | – | –
OC(CNCC(O)C1CCc2cc(F)ccc2O1)C1CCc2cc(F)ccc2O1 (centres unmarked) [Nebivolol] | no negative effect | – | little if any effects | can improve the quality of sleep | significant improvement in sleep quality
